Results as given in publication PMC2997738 (2008).

How the values were obtained:
[1] = system: GdG-3 (RNA, riboswitch) GGACAUACAAUCGCGUGGAUAUGGCACGCAAGAUCCCGCCGGGCACCGUAAAUGUCCGACUAUGUCC; assay: ITC; settings: 100 mM KCl, 20 mM MgCl2; 50 mM K+-Hepes pH 7.5, 30 °C; apparent
[2] = system: Wild-type G-box B. subtilis xpt–pbuX (xpt) (RNA, riboswitch) GGACAUAUAAUCGCGUGGAUAUGGCACGCAAGUUUCUACCGGGCACCGUAAAUGUCCGACUAUGUCC; assay: ITC; settings: 100 mM KCl, 20 mM MgCl2; 50 mM K+-Hepes pH 7.5, 30 °C; apparent

Nc1nc2[nH]cnc2c(=O)[nH]1
KD,G [1]: 1200 ± 700 µM

Nc1nc2c(ncn2[C@@H]2O[C@H](CO)[C@@H](O)[C@H]2O)c(=O)[nH]1
KD,rG [1]: 121 ± 8 µM

Nc1nc2c(ncn2[C@H]2C[C@H](O)[C@@H](CO)O2)c(=O)[nH]1
KD,dG [2]: 12 ± 1 µM | KD,dG [1]: 39 ± 1 µM
